# Laboratory results: publication PMC5217690 (The Journal of Biological Chemistry, 2016)
# Key:
# TrmDEC = target: T1, TrmDEC (Escherichia coli, UniProt P0A873); assay: ITC; assay type: binding
# T1 construct: gene trmD; full-length, N-terminal His tag (pET28b), expressed in E. coli BL21(DE3), tag kept
# T1 sequence (P0A873 2-255): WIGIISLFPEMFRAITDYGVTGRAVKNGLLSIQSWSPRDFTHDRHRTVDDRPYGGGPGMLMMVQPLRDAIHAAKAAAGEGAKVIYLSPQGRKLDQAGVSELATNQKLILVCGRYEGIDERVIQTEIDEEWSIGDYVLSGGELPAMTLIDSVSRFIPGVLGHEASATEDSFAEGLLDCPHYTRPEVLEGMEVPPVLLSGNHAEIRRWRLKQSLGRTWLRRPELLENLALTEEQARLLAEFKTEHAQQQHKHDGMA
# TrmDSA = target: T2, TrmDSA (Staphylococcus aureus, UniProt Q2FHJ8); assay: ITC; assay type: binding
# T2 construct: gene trmD; full-length, N-terminal His tag (pET28b), expressed in E. coli BL21(DE3), tag kept
# T2 sequence (Q2FHJ8 2-245): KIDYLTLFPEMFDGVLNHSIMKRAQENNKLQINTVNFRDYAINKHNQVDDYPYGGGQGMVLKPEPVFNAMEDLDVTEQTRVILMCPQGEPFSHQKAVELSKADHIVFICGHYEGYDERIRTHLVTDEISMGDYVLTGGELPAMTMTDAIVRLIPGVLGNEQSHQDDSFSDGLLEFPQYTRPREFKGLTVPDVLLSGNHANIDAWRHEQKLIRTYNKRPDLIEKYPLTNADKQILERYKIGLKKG
structure (smiles),measurement,setting,value
C[S+](CC[C@H](N)C(=O)O)C[C@H]1O[C@@H](n2cnc3c(N)ncnc32)[C@H](O)[C@@H]1O (some centres unmarked) [AdoMet],Kd,TrmDEC,21.5 µM
same,Kd,TrmDSA,121 µM
